Here are results for eight molecules from US20080176907A1, “NOS Inhibitors For Treatment Of Motor Deficit Disorders” (Northwestern University, priority 2006, published 2008).

Structures are written as SMILES.

A short description of data set [1]: effect of maternal administration on blood pressure and heart rate in E22 rabbit dams. It is filed as in vivo, New Zealand white rabbit. As to the method:
Because of the importance of eNOS to the regulation of cardiovascular activity, the effect of maternal administration of 4 and 5 on blood pressure in 22 day-gestation (E22) New Zealand white rabbit dams was determined. There was no effect on heart rate or on systolic or diastolic blood pressure by treatment with 4 or 5.

Data set [2] deals with hypoxia-ischemia of rabbit fetuses. The data set is described as follows: uterine ischemia, global hypoxia-ischemia of rabbit fetuses, neurobehavioral examination of P1 kits. As to conditions: for number of normal postnatal P1 kits: compared to saline-treated dams; for protection against HI-fetal brain injury: comparison with 7-NI, p<0.05 Fisher's Exact Test; for permeability to the fetal brain: maternal administration.

Data set [3] relates to total constitutive NOS activity (both nNOS and eNOS) in fetal brain homogenates. The data set can be described thus: NOS activity and NOx levels in fetal brain after maternal administration. The conditions noted are these: E22 rabbit dams. The class given is in vivo. From the text:
The NOS activity assay in fetal brain homogenates assessed total constitutive NOS activity (i.e., both nNOS and eNOS). […] Therefore changes in NOS activity should correspond to changes in nNOS activity. […] The corresponding decrease in the NO concentration also indicated strong NOS inhibition had occurred.

The conditions of data set [4]: Paudler and Blewitt, 1966; cited from earlier work.
For data set [5], the system named is whole body ischemia. As to conditions: in vivo; cited from earlier work.
The target in data set [6] is iNOS (Mus musculus, UniProt P29477). The data set can be described thus: biochemical.
Data set [7] concerns the target nNOS (Rattus norvegicus, UniProt P29476). The conditions noted are these: read-out: Ki nNOS.

iNOS, sequence (P29477 whole entry): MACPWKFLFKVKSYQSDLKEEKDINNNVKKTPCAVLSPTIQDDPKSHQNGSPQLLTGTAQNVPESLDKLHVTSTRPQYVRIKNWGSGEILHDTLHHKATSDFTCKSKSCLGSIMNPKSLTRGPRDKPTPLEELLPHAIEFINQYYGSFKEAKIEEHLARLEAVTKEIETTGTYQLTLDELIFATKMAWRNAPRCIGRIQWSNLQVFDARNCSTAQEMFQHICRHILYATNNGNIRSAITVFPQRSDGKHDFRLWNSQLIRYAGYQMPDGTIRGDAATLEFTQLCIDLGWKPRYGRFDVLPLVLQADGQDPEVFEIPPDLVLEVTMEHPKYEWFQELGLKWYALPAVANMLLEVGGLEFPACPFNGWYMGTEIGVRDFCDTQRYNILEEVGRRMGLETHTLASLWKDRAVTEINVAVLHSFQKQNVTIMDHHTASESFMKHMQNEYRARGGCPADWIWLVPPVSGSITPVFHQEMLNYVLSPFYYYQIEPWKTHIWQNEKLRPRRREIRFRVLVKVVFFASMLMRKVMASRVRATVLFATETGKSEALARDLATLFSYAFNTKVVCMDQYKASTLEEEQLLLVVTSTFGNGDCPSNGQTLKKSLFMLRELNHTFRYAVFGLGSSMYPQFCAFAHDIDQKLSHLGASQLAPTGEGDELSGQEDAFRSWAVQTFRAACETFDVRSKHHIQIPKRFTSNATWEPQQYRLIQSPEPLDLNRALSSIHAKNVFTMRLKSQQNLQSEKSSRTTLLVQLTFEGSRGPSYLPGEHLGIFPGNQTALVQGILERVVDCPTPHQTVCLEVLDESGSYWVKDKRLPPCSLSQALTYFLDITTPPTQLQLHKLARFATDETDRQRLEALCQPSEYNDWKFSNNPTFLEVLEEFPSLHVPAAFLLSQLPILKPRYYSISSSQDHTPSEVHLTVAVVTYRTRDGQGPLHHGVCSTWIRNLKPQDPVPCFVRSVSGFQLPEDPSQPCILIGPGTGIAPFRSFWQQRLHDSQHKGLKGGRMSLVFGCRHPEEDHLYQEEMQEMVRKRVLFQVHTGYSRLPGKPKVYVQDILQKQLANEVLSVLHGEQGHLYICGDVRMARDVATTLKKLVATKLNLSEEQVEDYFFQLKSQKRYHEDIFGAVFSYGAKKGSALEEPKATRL

Consider `Cc1cc(N)nc(C[C@H]2CNC[C@H]2NCCNCc2ccc(Cl)cc2)c1` (racemic) [(±)-4], for which, in data set [1], the “effect on heart rate” value is reported as “no effect” and the “effect on systolic or diastolic blood pressure” value is on record as “no effect”. Also, the “incidence of fetal death (dead/total fetuses)” value in data set [2] (0/49 is stated for either 4 or 5) was 0/49. Besides, in data set [2] (Dose 75 ki × 2, Age 22), the “Normal (number of kits)” value is 9 and the “Severe (number of kits)” value is listed as 2. The “Severe (number of kits)” value in data set [2] (Dose 75 ki × 2, Age 25) was found to be 2. Also, in data set [2] (Dose 75 ki × 2, Age 29), the “Normal (number of kits)” value is on record as 10. Moreover, in data set [2], the “number of normal postnatal P1 kits” value is “substantially larger number”, the “protection against HI-fetal brain injury” value is given as “superior to 7-NI” and the “permeability to the fetal brain” value is recorded as “permeable”. Also, the fetal/neonatal deaths entry in data set [2] (inhibitor 30 min prior to and immediately after uterine ischemia) is “no deaths”.
As to `Cc1cc(N)nc(C[C@H]2CNC[C@H]2NCCNCCc2cccc(F)c2)c1` (racemic) [(±)-5], in data set [1], the “effect on heart rate” value is “no effect” and the “effect on systolic or diastolic blood pressure” value is “no effect”. For the same molecule, in data set [3] (after maternal treatment), the “NO concentration (NOx) in fetal brain” value is recorded as “decrease”. Besides, the “NOS activity in fetal brain” value in data set [3] (shortly after acute maternal treatment) is listed as “NOS inhibition was observed”. Moreover, in data set [2] (administered post-ischemia), the “effect when administered post-ischemia” value is recorded as “no effect”. Moreover, in data set [2], the “number of normal postnatal P1 kits” value was “substantially larger number”, the “protection against HI-fetal brain injury” value is “superior to 7-NI” and the “permeability to the fetal brain” value was “permeable”. For the same molecule, in data set [2] (rabbit, in vivo), the fetal/neonatal deaths entry is “no deaths” and the “incidence of fetal death (dead/total fetuses)” value was 0/49.
In the case of `Cc1cc(N)nc(C[C@H]2CNC[C@H]2NCCNCCc2ccccc2)c1` (relative stereo) [JI-6], the “Normal (number of kits)” value in data set [2] (Dose 200 ki × 2, Age 22) came to 9.
In the case of `Cc1cc(C)nc(N)c1` [2-amino-4,6-dimethylpyridine], in data set [4], the pKa was 7.12.
With `O=[N+]([O-])c1cccc2cn[nH]c12` [7-NI, 7-nitroindazole, reference compound], in data set [2] (rabbit, in vivo), the “incidence of fetal death (dead/total fetuses)” value is listed as 10/38 and the “incidence of fetal death (stillborn)” value is recorded as 26%.
On to `FC(F)(F)c1ccccc1-n1ccnc1` [TRIM], for which the “outcome following whole body ischemia” value in data set [5] is “worse outcome”.
For the molecule `N=C(NCCC[C@H](N)C(=O)N[C@H]1CN[C@H](C(N)=O)C1)N[N+](=O)[O-]` [compound 3], the figures for the inhibitory constant (Ki) in data set [6] and in data set [7] were 29 µM and 100 nM, respectively.
Take `N=C(NCCC[C@H](N)C(=O)O)N[N+](=O)[O-]` [εNNA, L-N^ω-nitroarginine]: the affinity in data set [6], expressed as Ki, was 4.55 µM.

By pKa is commonly meant the negative logarithm of the acid dissociation constant. Usually Ki stands for the dissociation constant of the complex between target and ligand, obtained from inhibition or displacement.
